Measured values published in patent US8178535B2, “Substituted sulfonamide compounds having bradykinin 1 receptor activity and use thereof as medicaments” (Gruenenthal GmbH, priority 2008, dated 2012).

Assays:
[1] = target: T1, human B1R receptor (hB1R) (Homo sapiens, UniProt P46663); test: FLIPR Ca2+ assay (Fluo-4) on CHO K1 cells stably transfected with the human B1R gene; format: cell-based; details: test substance 10 μM, agonist Lys-Des-Arg9-bradykinin 0.5 nM, % inhibition compared to the maximum achievable inhibition; for inhibition at 10 µM: CHO-K1
T1 construct: host or cells: CHO K1 cells
T1 sequence (P46663 1-353): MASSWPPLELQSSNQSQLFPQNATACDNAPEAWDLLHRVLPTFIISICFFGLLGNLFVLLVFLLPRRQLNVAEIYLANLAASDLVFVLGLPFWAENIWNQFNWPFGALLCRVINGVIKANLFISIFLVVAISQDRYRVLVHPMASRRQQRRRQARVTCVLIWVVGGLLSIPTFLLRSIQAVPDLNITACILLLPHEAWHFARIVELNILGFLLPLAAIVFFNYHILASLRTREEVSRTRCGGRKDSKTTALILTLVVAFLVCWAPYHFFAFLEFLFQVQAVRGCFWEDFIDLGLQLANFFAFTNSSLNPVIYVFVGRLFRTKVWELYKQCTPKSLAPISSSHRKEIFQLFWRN
Description: (§1) The agonistic or antagonistic action of compounds can be quantified on the bradykinin 1 receptor (B1R) of humans and rats with ectopically expressing cell lines (CHO K1 cells) and with the aid of a Ca^2+-sensitive dye (Fluo-4) in the fluorescent imaging plate reader (FLIPR). The figure in percent activation refers to the Ca^2+ signal after addition of Lys-Des-Arg^9-bradykinin (0.5 nM) and Des-Arg^9-bradykinin (100 nM). Antagonists result in a suppression of the Ca^2+ inflow after the addition of the agonist. Percent inhibition values are given in comparison to the maximum achievable inhibition. The compounds according to the invention act, for example, on the B1R which is implicated in various disease states. This means that the compounds of the invention are useful as pharmaceutically active substances in medicaments for the treatment and/or inhibition of such disease states.
(§2) The agonistic or antagonistic action of substances can be determined on the bradykinin 1 receptor (B1R) of humans and rats by means of the following assay. According to this assay the Ca^2+ inflow through the channel is quantified by means of a Ca^2+-sensitive dye (Fluo-4 type, Molecular Probes Europe BV, Leiden, Netherlands), in a Fluorescent Imaging Plate Reader (FLIPR, Molecular Devices, Sunnyvale, USA).
(§3) Chinese hamster ovary cells (CHO K1 cells) are used, which are stably transfected with the human B1R gene (hB1R cells, Euroscreen s.a., Gosselies, Belgium), or with the B1R gene of rats (rB1R cells, Axxam, Milan, Italy). For functional investigations these cells are plated out on black 96-well plates with a clear floor (BD Biosciences, Heidelberg, Germany) in a density of 20,000/25,000 cells/well. The cells are incubated overnight with 10 vol. % FBS (foetal bovine serum, Gibco Invitrogen GmbH, Karlsruhe, Germany) at 37° C. and 5% CO2 in a culture medium (hB1R cells: Nutrient Mixture Ham's F12, Gibco Invitrogen GmbH, Karlsruhe, Germany; rB1R cells: D-MEM/F12, Gibco Invitrogen GmbH, Karlsruhe, Germany). The following day the cells are charged for 60 minutes at 37° C. with 2.13 μM Fluo-4 (Molecular Probes Europe BV, Leiden, Netherlands) in HBSS buffer (Hank's buffered saline solution, Gibco Invitrogen GmbH, Karlsruhe, Germany) together with […] (Sigma-Aldrich, Taufkirchen, Germany) and 10 mM HEPES (Sigma-Aldrich, Taufkirchen, Germany).
(§4) The plates are then washed twice with HBSS buffer and HBSS buffer is added which additionally contains 0.1% BSA (bovine serum albumin; Sigma-Aldrich, Taufkirchen, Germany), 5.6 mM glucose and 0.05% gelatin (Merck KGaA, Darmstadt, Germany). After further incubation for 20 minutes at room temperature the plates are used for the Ca^2+ measurement in the FLIPR. The Ca^2+-dependent fluorescence is measured both before and after the addition of substances (λex=488 nm, λem=540 nm). The quantification is carried out by measuring the highest fluorescence intensity (FC, fluorescence counts) over time.
(§5) The FLIPR protocol consists of two substance additions. First, test substances (10 μM) are pipetted onto the cells and the Ca^2+ inflow is compared with the control (hB1R: Lys-Des-Arg9-bradykinin 0.5 nM; rB1R: Des-Arg9-bradykinin 100 nM). This gives the result in percent activation referred to the Ca^2+ signal after addition of Lys-Des-Arg9-bradykinin (0.5 nM), bzw. Des-Arg9-bradykinin (100 nM). After 10 minutes' incubation 0.5 nM Lys-Des-Arg9-bradykinin (hB1R) and 100 nM Des-Arg^9-bradykinin (rB1R) are applied and the inflow of Ca^2+ is likewise determined. Antagonists lead to a suppression of the Ca^2+ inflow. The percent inhibition compared to the maximum achievable inhibition is calculated. The compounds show a good activity on both human and rat receptors.
(§6) The agonistic and antagonistic action of the compounds according to the invention on the bradykinin 1 receptor (B1R) of humans and rats were determined as described above. Antagonists lead to a suppression of the Ca^2+ inflow. […]

[2] = target: T2, B1R receptor of rats (rB1R) (Rattus norvegicus, UniProt P97583); test: FLIPR Ca2+ assay (Fluo-4) on CHO K1 cells stably transfected with the B1R gene of rats; format: cell-based; details: test substance 10 μM, agonist Des-Arg9-bradykinin 100 nM, % inhibition compared to the maximum achievable inhibition; for inhibition at 10 µM: CHO-K1
T2 construct: host or cells: CHO K1 cells
T2 sequence (P97583 1-337): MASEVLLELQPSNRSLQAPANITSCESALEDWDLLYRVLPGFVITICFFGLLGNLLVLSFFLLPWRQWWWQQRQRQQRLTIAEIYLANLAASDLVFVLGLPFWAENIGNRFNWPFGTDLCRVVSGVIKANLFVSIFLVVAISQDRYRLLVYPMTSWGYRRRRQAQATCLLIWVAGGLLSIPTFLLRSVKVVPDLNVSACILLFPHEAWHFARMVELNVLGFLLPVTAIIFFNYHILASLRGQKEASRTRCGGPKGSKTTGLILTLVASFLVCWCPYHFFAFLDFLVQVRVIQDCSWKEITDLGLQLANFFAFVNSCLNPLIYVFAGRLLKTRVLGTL
Description: as §1, §2, §3, §4, §5, §6

SMILES	inhibition at 10 µM [1] [%]	inhibition at 10 µM [2] [%]	hB1R [10 μM] % Inhibition [1] [%]	rB1R [10 μM] % Inhibition [2] [%]
COc1cc(C)c(S(=O)(=O)N2CCCCC2COCC(=O)N2CCn3c(Cc4cccnc4)ccc3C2)c(C)c1 (centres unmarked) [(111), 2-((1-(4-Methoxy-2,6-dimethylphenylsulfonyl)piperidin-2-yl)methoxy)-1-(6-(pyridin-3-ylmethyl)-3,4-dihydropyrrolo[1,2-a]pyrazin-2(1H)-yl)ethanone]	100	98		
CCC1c2ccc(CN(C)C)n2CCN1C(=O)COCC1CCCCN1S(=O)(=O)c1c(C)cc(OC)cc1C (centres unmarked) [(69), 1-(6-((dimethylamino)methyl)-1-ethyl-3,4-dihydropyrrolo[1,2-a]pyrazin-2(1H)-yl)-2-((1-(4-methoxy-2,6-dimethylphenylsulfonyl)piperidin-2-yl)methoxy)ethanone]	104	102		
Cc1cc(C)c(S(=O)(=O)N2CCCCC2COCC(=O)N2CCn3cccc3C2c2cccc(F)c2)c(C)c1 (centres unmarked) [(42), 1-(1-(3-fluorophenyl)-3,4-dihydropyrrolo[1,2-a]pyrazin-2(1H)-yl)-2-((1-(mesitylsulfonyl)piperidin-2-yl)methoxy)ethanone]	73	99		
COc1cc(C)c(S(=O)(=O)N2CCCCC2COCC(=O)N2CCn3c(ccc3-c3ccncc3)C2)c(C)c1 (centres unmarked) [(95), 2-((1-(4-Methoxy-2,6-dimethylphenylsulfonyl)piperidin-2-yl)methoxy)-1-(6-(pyridin-4-yl)-3,4-dihydropyrrolo[1,2-a]pyrazin-2(1H)-yl)ethanone]	99	97		
CCCCC1c2ccc(CN(C)C)n2CCN1C(=O)COCC1CCCCN1S(=O)(=O)c1c(C)cc(C)cc1C (centres unmarked) [(52), 1-(1-butyl-6-((dimethylamino)methyl)-3,4-dihydropyrrolo[1,2-a]pyrazin-2(1H)-yl)-2-((1-(mesitylsulfonyl)piperidin-2-yl)methoxy)ethanone]	103	100		
O=C(CC1CCCCN1S(=O)(=O)c1cccc(C(F)(F)F)c1)N1CCn2c(CN3CCCC3)ccc2C1 (centres unmarked) [(8), 1-(6-(pyrrolidin-1-ylmethyl)-3,4-dihydropyrrolo[1,2-a]pyrazin-2(1H)-yl)-2-(1-(3-(trifluoromethyl)phenylsulfonyl)piperidin-2-yl)ethanone]	99	96		
COc1cc(C)c(S(=O)(=O)N2CCCCC2COCC(=O)N2CCn3cccc3C2c2cccnc2)c(C)c1 (centres unmarked) [(21), 2-((1-(4-methoxy-2,6-dimethylphenylsulfonyl)piperidin-2-yl)methoxy)-1-(1-(pyridin-3-yl)-3,4-dihydropyrrolo[1,2-a]pyrazin-2(1H)-yl)ethanone]	100	98		
COc1cc(C)c(S(=O)(=O)N2CCCCC2COCC(=O)N2CCn3c(Cc4ccncc4)ccc3C2)c(C)c1 (centres unmarked) [(88), 2-((1-(4-Methoxy-2,6-dimethylphenylsulfonyl)piperidin-2-yl)methoxy)-1-(6-(pyridin-4-ylmethyl)-3,4-dihydropyrrolo[1,2-a]pyrazin-2(1H)-yl)ethanone]	99	100		
CCC1c2ccc(C)n2CCN1C(=O)COCC1CCCCN1S(=O)(=O)c1c(C)cc(C)cc1C (centres unmarked) [(58), 1-(1-ethyl-6-methyl-3,4-dihydropyrrolo[1,2-a]pyrazin-2(1H)-yl)-2-((1-(mesitylsulfonyl)piperidin-2-yl)methoxy)ethanone]	97	103		
Cc1cc(C)c(S(=O)(=O)N2CCCCC2COCC(=O)N2CCn3cccc3C2c2ccccc2)c(C)c1 (centres unmarked) [(39), 2-((1-(mesitylsulfonyl)piperidin-2-yl)methoxy)-1-(1-phenyl-3,4-dihydropyrrolo[1,2-a]pyrazin-2(1H)-yl)ethanone]	77	99		
COc1cc(C)c(S(=O)(=O)N2CCCCC2COCC(=O)N2CCn3c(CCCN4CCN(C)CC4)ccc3C2)c(C)c1 (centres unmarked) [(14), 2-((1-(4-methoxy-2,6-dimethylphenylsulfonyl)piperidin-2-yl)methoxy)-1-(6-(3-(4-methylpiperazin-1-yl)propyl)-3,4-dihydropyrrolo[1,2-a]pyrazin-2(1H)-yl)ethanone]	97	99		
COc1cc(C)c(S(=O)(=O)N2CCCCC2COCC(=O)N2CCn3c(CN4CCCC4)ccc3C2c2ccccc2)c(C)c1 (centres unmarked) [(62), 2-((1-(4-methoxy-2,6-dimethylphenylsulfonyl)piperidin-2-yl)methoxy)-1-(1-phenyl-6-(pyrrolidin-1-ylmethyl)-3,4-dihydropyrrolo[1,2-a]pyrazin-2(1H)-yl)ethanone]	102	101		
Cc1cc(C)c(S(=O)(=O)N2CCCCC2COCC(=O)N2CCn3cccc3C2c2cccc(C(F)(F)F)c2)c(C)c1 (centres unmarked) [(44), 2-((1-(mesitylsulfonyl)piperidin-2-yl)methoxy)-1-(1-(3-(trifluoromethyl)phenyl)-3,4-dihydropyrrolo[1,2-a]pyrazin-2(1H)-yl)ethanone]	10	79		
COc1cc(C)c(S(=O)(=O)N2CCCCC2COCC(=O)N2CCn3c(CCc4ccncc4)ccc3C2)c(C)c1 (centres unmarked) [(106), 2-((1-(4-Methoxy-2,6-dimethylphenylsulfonyl)piperidin-2-yl)methoxy)-1-(6-(2-(pyridin-4-yl)ethyl)-3,4-dihydropyrrolo[1,2-a]pyrazin-2(1H)-yl)ethanone]	99	99		
Cc1cc(C)c(S(=O)(=O)N2CCCCC2COCC(=O)N2CCn3cccc3C2C)c(C)c1 (centres unmarked) [(34), 2-((1-(mesitylsulfonyl)piperidin-2-yl)methoxy)-1-(1-methyl-3,4-dehydro-pyrrolo[1,2-a]pyrazin-2(1H)-yl)ethanone]			76	99
O=C(CC1CCCCN1S(=O)(=O)c1cccc(C(F)(F)F)c1)N1CCn2cc(-c3ccncc3)nc2C1 (centres unmarked) [(104), 1-(2-(Pyridin-4-yl)-5,6-dihydroimidazo[1,2-a]pyrazin-7(8H)-yl)-2-(1-(3-(trifluoromethyl)phenylsulfonyl)piperidin-2-yl)ethanone]	43	49		
